Measured values from ChEMBL document CHEMBL1144798, “New chemotypes for cathepsin K inhibitors” (Bioorg Med Chem Lett, 2008).

How the values were obtained:
[1] = target: Cathepsin S (Homo sapiens, UniProt P25774); assay: Inhibition of human recombinant cathepsin S by fluorescence assay
[2] = target: T1, Cathepsin K (Homo sapiens, UniProt P43235); assay: Inhibition of human recombinant cathepsin K by fluorescence assay
T1 sequence (P43235 whole entry): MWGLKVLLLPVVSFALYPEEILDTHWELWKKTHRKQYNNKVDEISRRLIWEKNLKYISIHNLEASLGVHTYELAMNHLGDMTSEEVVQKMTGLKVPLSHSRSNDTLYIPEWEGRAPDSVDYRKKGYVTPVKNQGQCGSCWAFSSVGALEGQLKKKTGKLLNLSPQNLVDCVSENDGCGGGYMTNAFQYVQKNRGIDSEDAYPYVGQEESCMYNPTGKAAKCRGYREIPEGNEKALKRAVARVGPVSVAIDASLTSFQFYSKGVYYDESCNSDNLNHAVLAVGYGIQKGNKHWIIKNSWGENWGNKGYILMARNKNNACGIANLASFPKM

[3] = target: Procathepsin L (Homo sapiens, UniProt P07711); assay: Inhibition of human recombinant cathepsin L by fluorescence assay
Chain of Procathepsin L (P07711 whole entry): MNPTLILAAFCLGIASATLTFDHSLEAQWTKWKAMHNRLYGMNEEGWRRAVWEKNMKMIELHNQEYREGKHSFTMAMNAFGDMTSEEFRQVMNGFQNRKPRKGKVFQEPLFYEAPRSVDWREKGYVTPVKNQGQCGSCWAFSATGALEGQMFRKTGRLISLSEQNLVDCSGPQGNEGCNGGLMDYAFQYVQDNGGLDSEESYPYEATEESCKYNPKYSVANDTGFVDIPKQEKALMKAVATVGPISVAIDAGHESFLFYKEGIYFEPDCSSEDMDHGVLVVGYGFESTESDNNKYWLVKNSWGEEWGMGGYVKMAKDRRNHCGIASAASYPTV

Chain of Cathepsin S (P25774 whole entry): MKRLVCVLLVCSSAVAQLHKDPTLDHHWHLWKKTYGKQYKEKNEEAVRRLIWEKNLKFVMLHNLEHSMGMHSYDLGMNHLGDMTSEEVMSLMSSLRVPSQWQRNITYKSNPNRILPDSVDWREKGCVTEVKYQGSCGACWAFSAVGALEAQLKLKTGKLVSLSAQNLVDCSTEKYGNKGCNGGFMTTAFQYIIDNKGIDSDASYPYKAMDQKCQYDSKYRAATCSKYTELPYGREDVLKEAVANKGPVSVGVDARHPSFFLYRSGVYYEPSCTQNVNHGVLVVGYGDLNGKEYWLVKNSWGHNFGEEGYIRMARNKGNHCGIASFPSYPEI

Row | SMILES | IC50 [1] [nM] | IC50 [2] [nM] | IC50 [3] [nM]
1 | CC(C)(C)CNc1nc(C#N)ncc1C#CCOc1cccnc1 | 460 | 8.6 | 1000
2 | CC(C)(C)CNc1nc(C#N)ncc1C#CCn1cnc(Cl)c1Cl | 68 | 7.2 | 190
3 | CC(C)(C)CN(Cc1ccc(C#CCn2cncn2)cc1)c1ccnc(C#N)n1 | > 1000 | 8.6 | > 1000
4 | COc1ccc(S(=O)(=O)N2CCN(CC#Cc3cnc(C#N)nc3NCC(C)(C)C)CC2)cc1 | > 1000 | 7.1 | > 1000
5 | CN1CCN(c2ccc(CC#Cc3cnc(C#N)nc3NCC(C)(C)C)cc2)CC1 | 760 | 7.1 | 980
6 | CC(C)(C)CNc1nc(C#N)ncc1C#CCN1CCN(S(=O)(=O)CCCCl)CC1 | 800 | 3.7 | > 1000
7 | CC(C)(C)CN(Cc1ccccc1)c1ccnc(C#N)n1 | > 1000 | 69 | > 1000
8 | CC(C)(C)CN(Cc1ccc(Cn2cncn2)cc1)c1ccnc(C#N)n1 | > 1000 | 4.8 | > 1000
9 | CC(C)(C)CNc1nc(C#N)ncc1C#CCN1CCc2ccccc2C1 | 840 | 3.2 | 150
10 | CC(C)(C)CN(Cc1ccc(C#CCN2CCCCC2)cc1)c1ccnc(C#N)n1 | > 1000 | 7.3 | > 1000
11 | CC(=O)N1CCN(CC#Cc2ccc(CN(CC(C)(C)C)c3ccnc(C#N)n3)cc2)CC1 | > 1000 | 6.4 | > 1000
12 | CC(C)(C)CN(Cc1ccc(C#CCN2CCC(N3CCCCC3)CC2)cc1)c1ccnc(C#N)n1 | > 1000 | 3.6 | > 1000
13 | CC(C)(C)CNc1nc(C#N)ncc1C#CCN1Cc2ccccc2C1 | 920 | 10 | > 1000
14 | CN1CCN(CC#Cc2ccc(CN(CC(C)(C)C)c3ccnc(C#N)n3)cc2)CC1 | > 1000 | 3.8 | > 1000
15 | CC(C)(C)CN(Cc1ccc(I)cc1)c1ccnc(C#N)n1 | > 1000 | 19 | > 1000
